Literature values as cited in patent publication US20140004177A1, “COX-2 INHIBITORS AND RELATED COMPOUNDS, AND SYSTEMS AND METHODS FOR DELIVERY THEREOF” (Strategic Science & Technologies, LLC, priority 2010, published 2014).

- pKa: 19.7
Compound: CS(=O)(=O)c1ccc(C2=C(c3ccccc3)C(=O)OC2)cc1 [rofecoxib]
